Test results from PMC12040969, “Design, synthesis, in silico studies, and apoptotic antiproliferative activity of novel thiazole-2-acetamide derivatives as tubulin polymerization inhibitors” (Frontiers in Chemistry, 2025).

Tests used:
breast - MCF-7 = experiment: Antiproliferative assay (MTT) MCF-7; details: for IC50: read-out: Antiproliferative activity IC50 ± SEM (µM) MCF-7, MCF-7, MTT
[1] = system: four human cancer cell lines (HCT-116, PC-3, MCF-7, MDAMB-231); experiment: Antiproliferative assay, mean of four cell lines (GI50); details: for Reduced potency compared to doxorubicin (GI50) / Reduced potency compared to sorafenib (GI50): GI50 ratio; for IC50: Homo sapiens, read-out: GI50 (average IC50)
tubulin = experiment: Tubulin polymerization inhibition assay (Cytoskeleton kit);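 on all read-outs here: Cell-free tubulin polymerization read by fluorescent reporter enhancement over a 30 min reaction, with the compound-free kit control taken as 100% activity and inhibition relative to it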; details: for Tub %inh / Tub. enzyme inhibition assay %inhibition: 30 min; for Tub %inh: YB-EGY run; for Tub K.Activity: EC = 120, YB-EGY run; for IC50: read-out: Tubulin inhibition IC50 ± SEM, triplicate for each tested concentration; for Tub. enzyme inhibition assay %inhibition: codes 522-537 run; for Tub. enzyme inhibition assay K. Activity: control = 120, codes 522-537 run
colon - HCT-116 = experiment: Antiproliferative assay (MTT) HCT-116; details: for IC50: read-out: Antiproliferative activity IC50 ± SEM (µM) HCT-116, HCT-116, MTT
[2] = Cell viability assay (MTT), normal cells; type: cell-based; details: human, MCF-10A normal mammary gland epithelial cells, four-day incubation
Method: The impact of novel compounds 10a-o and 13a-e on cell viability was examined using the MCF-10A (human mammary gland epithelial) normal cell line. The MTT test was employed to assess the cell viability of the novel compounds after a four-day incubation with MCF-10A cells ([El-Sherief et al., 2019]; [Ramadan et al., 2020]).
The effects of compounds 10a-o and 13a-e on cell viability were assessed using the human mammary gland epithelial normal cell line (MCF-10A). The MTT assay assessed the cell viability of compounds 10a-o and 13a-e following a four-day incubation with MCF-10A cells ([El-Sherief et al., 2019]; [Ramadan et al., 2020]). Check Supplementary Appendix A for additional information.
4.2. Biological evaluation
4.2.1 Cell Viability assay (MTT assay)
MTT assay was performed to investigate the effect of the synthesized compounds on mammary epithelial cells (MCF-10A). The cells were propagated in medium consisting of Ham's F-12 medium/ Dulbecco's modified Eagle's medium (DMEM) (1:1) supplemented with 10% foetal calf serum, 2 mM glutamine, insulin (10 μg/mL), hydrocortisone (500 ng/mL) and epidermal growth factor (20 ng/mL). Trypsin ethylenediamine tetra acetic acid (EDTA) was used to passage the cells after every 2-3 days. 96-well flat-bottomed cell culture plates were used to seed the cells at a density of 10^4 cells mL-1. The medium was aspirated from all the wells of culture plates after 24 h followed by the addition of synthesized compounds (in 200 μL medium to yield a final concentration of 0.1% (v/v) dimethyl sulfoxide) into individual wells of the plates.
Four wells were designated to a single compound. The plates were allowed to incubate at 37°C for 96 h. Afterwards, the medium was aspirated and 3-[4,5-dimethylthiazol-2-yl]-2,5-diphenyltetrazolium bromide (MTT) (0.4 mg/mL) in medium was added to each well and subsequently incubated for 3 h. The medium was aspirated and 150 μL dimethyl sulfoxide (DMSO) was added to each well. The plates were vortexed followed by the measurement of absorbance at 540 nm on a microplate reader. The results were presented as inhibition (%) of proliferation in contrast to controls comprising 0.1%

prostatic - PC-3 = experiment: Antiproliferative assay (MTT) PC-3; details: for IC50: read-out: Antiproliferative activity IC50 ± SEM (µM) PC-3, PC-3, MTT
- MDAMB-231 = experiment: Antiproliferative assay (MTT) MDAMB-231
pancreatic - MDAMB-231 = experiment: Antiproliferative assay (MTT) MDAMB-231; details: read-out: Antiproliferative activity IC50 ± SEM (µM) MDAMB-231; MDAMB-231, MTT

## Cc1ccc(/C=C/C(=O)c2sc(SCC(=O)Nc3nc(-c4ccccc4)cs3)nc2C)cc1 [Compound 10d, (E)-2-((4-methyl-5-(3-(p-tolyl)acryloyl)thiazol-2-yl)thio)-N-(4-phenylthiazol-2-yl)acetamide]
Breast - MCF-7; MCF-7, 1.56 µM
  Average of Relative viability of cells (%): 97.5%
Breast - MCF-7; MCF-7, 3.125 µM
  Average of Relative viability of cells (%): 84.1%
Breast - MCF-7; MCF-7, 6.25 µM
  Average of Relative viability of cells (%): 57.3%
Breast - MCF-7; MCF-7, 12.5 µM
  Average of Relative viability of cells (%): 39.2%
Breast - MCF-7; MCF-7, 25 µM
  Average of Relative viability of cells (%): 22.6%
Breast - MCF-7; MCF-7, 50 µM
  Average of Relative viability of cells (%): 20.4%
Breast - MCF-7; MCF-7, 100 µM
  Average of Relative viability of cells (%): 8.1%
Breast - MCF-7
  IC50: 10 ± 0.8 µM
[1]
  Reduced potency compared to doxorubicin (GI50): at least 2.5 fold
  Reduced potency compared to sorafenib (GI50): ≥ 1.5 fold
  IC50: 13 µM
tubulin; conc 0.1 (unit not given)
  Tub %inh: 17.5%
  Tub K.Activity: 98.945
tubulin; conc 1 (unit not given)
  Tub %inh: 26.6%
  Tub K.Activity: 88.129
tubulin; conc 10 (unit not given)
  Tub %inh: 45.2%
  Tub K.Activity: 65.722
tubulin; conc 50 (unit not given)
  Tub %inh: 71.7%
  Tub K.Activity: 33.903
tubulin; conc 100 (unit not given)
  Tub %inh: 91.1%
  Tub K.Activity: 10.641
tubulin
  IC50: 5.26 ± 0.16 µM
Colon - HCT-116; HCT-116, 1.56 µM
  Average of Relative viability of cells (%): 100%
Colon - HCT-116; HCT-116, 3.125 µM
  Average of Relative viability of cells (%): 91.5%
Colon - HCT-116; HCT-116, 6.25 µM
  Average of Relative viability of cells (%): 73.6%
Colon - HCT-116; HCT-116, 12.5 µM
  Average of Relative viability of cells (%): 50.2%
Colon - HCT-116; HCT-116, 25 µM
  Average of Relative viability of cells (%): 41.9%
Colon - HCT-116; HCT-116, 50 µM
  Average of Relative viability of cells (%): 29.7%
Colon - HCT-116; HCT-116, 100 µM
  Average of Relative viability of cells (%): 22.4%
Colon - HCT-116
  IC50: 19 ± 1.5 µM
[2]
  viability at 96 h, 50 µM: 90%
Prostatic - PC-3; PC-3, 1.56 µM
  Average of Relative viability of cells (%): 100%
Prostatic - PC-3; PC-3, 3.125 µM
  Average of Relative viability of cells (%): 86.5%
Prostatic - PC-3; PC-3, 6.25 µM
  Average of Relative viability of cells (%): 69.6%
Prostatic - PC-3; PC-3, 12.5 µM
  Average of Relative viability of cells (%): 52.3%
Prostatic - PC-3; PC-3, 25 µM
  Average of Relative viability of cells (%): 36.4%
Prostatic - PC-3; PC-3, 50 µM
  Average of Relative viability of cells (%): 27.9%
Prostatic - PC-3; PC-3, 100 µM
  Average of Relative viability of cells (%): 18.7%
Prostatic - PC-3
  IC50: 16 ± 1.3 µM
- MDAMB-231; MDAMB-231, 1.56 µM
  Average of Relative viability of cells (%): 89.2%
- MDAMB-231; MDAMB-231, 3.125 µM
  Average of Relative viability of cells (%): 69.3%
- MDAMB-231; MDAMB-231, 6.25 µM
  Average of Relative viability of cells (%): 60.4%
- MDAMB-231; MDAMB-231, 12.5 µM
  Average of Relative viability of cells (%): 31.6%
- MDAMB-231; MDAMB-231, 25 µM
  Average of Relative viability of cells (%): 25.8%
- MDAMB-231; MDAMB-231, 50 µM
  Average of Relative viability of cells (%): 16.9%
- MDAMB-231; MDAMB-231, 100 µM
  Average of Relative viability of cells (%): 13.9%
Pancreatic - MDAMB-231
  IC50: 8 ± 0.7 µM

## Cc1nc(SCC(=O)Nc2nc(-c3ccc(Cl)cc3)cs2)sc1C(=O)/C=C/c1ccccc1 [Compound 10f, (E)-N-(4-(4-chlorophenyl)thiazol-2-yl)-2-((5-cinnamoyl-4-methylthiazol-2-yl)thio) acetamide]
Breast - MCF-7; MCF-7, 1.56 µM
  Average of Relative viability of cells (%): 100%
Breast - MCF-7; MCF-7, 3.125 µM
  Average of Relative viability of cells (%): 84.7%
Breast - MCF-7; MCF-7, 6.25 µM
  Average of Relative viability of cells (%): 68.3%
Breast - MCF-7; MCF-7, 12.5 µM
  Average of Relative viability of cells (%): 41.9%
Breast - MCF-7; MCF-7, 25 µM
  Average of Relative viability of cells (%): 33.5%
Breast - MCF-7; MCF-7, 50 µM
  Average of Relative viability of cells (%): 27.4%
Breast - MCF-7; MCF-7, 100 µM
  Average of Relative viability of cells (%): 19.2%
Breast - MCF-7
  IC50: 14 ± 1.1 µM
[1]
  Reduced potency compared to doxorubicin (GI50): at least 2.5 fold
  Reduced potency compared to sorafenib (GI50): ≥ 1.5 fold
  IC50: 18 µM
tubulin; conc 0.01 (unit not given)
  Tub. enzyme inhibition assay %inhibition: 5.23%
  Tub. enzyme inhibition assay K. Activity: 113.72
tubulin; conc 0.1 (unit not given)
  Tub. enzyme inhibition assay %inhibition: 15.6%
  Tub. enzyme inhibition assay K. Activity: 101.33
tubulin; conc 1 (unit not given)
  Tub. enzyme inhibition assay %inhibition: 34.8%
  Tub. enzyme inhibition assay K. Activity: 78.182
tubulin; conc 10 (unit not given)
  Tub. enzyme inhibition assay %inhibition: 58.9%
  Tub. enzyme inhibition assay K. Activity: 49.376
tubulin; conc 100 (unit not given)
  Tub. enzyme inhibition assay %inhibition: 87.6%
  Tub. enzyme inhibition assay K. Activity: 14.884
tubulin
  IC50: 5.62 ± 0.17 µM
tubulin; supplement raw data, lab codes
  Tub. (IC50) IC50±SD: 2.88 ± 0.09 µg/mL
Colon - HCT-116; HCT-116, 1.56 µM
  Average of Relative viability of cells (%): 100%
Colon - HCT-116; HCT-116, 3.125 µM
  Average of Relative viability of cells (%): 90.2%
Colon - HCT-116; HCT-116, 6.25 µM
  Average of Relative viability of cells (%): 71.1%
Colon - HCT-116; HCT-116, 12.5 µM
  Average of Relative viability of cells (%): 63.4%
Colon - HCT-116; HCT-116, 25 µM
  Average of Relative viability of cells (%): 50.5%
Colon - HCT-116; HCT-116, 50 µM
  Average of Relative viability of cells (%): 35.7%
Colon - HCT-116; HCT-116, 100 µM
  Average of Relative viability of cells (%): 23.6%
Colon - HCT-116
  IC50: 25 ± 1.8 µM
[2]
  viability at 96 h, 50 µM: 86%
Prostatic - PC-3; PC-3, 1.56 µM
  Average of Relative viability of cells (%): 100%
Prostatic - PC-3; PC-3, 3.125 µM
  Average of Relative viability of cells (%): 91.8%
Prostatic - PC-3; PC-3, 6.25 µM
  Average of Relative viability of cells (%): 70.5%
Prostatic - PC-3; PC-3, 12.5 µM
  Average of Relative viability of cells (%): 58.2%
Prostatic - PC-3; PC-3, 25 µM
  Average of Relative viability of cells (%): 46.7%
Prostatic - PC-3; PC-3, 50 µM
  Average of Relative viability of cells (%): 32.3%
Prostatic - PC-3; PC-3, 100 µM
  Average of Relative viability of cells (%): 24.2%
Prostatic - PC-3
  IC50: 22 ± 1.6 µM
- MDAMB-231; MDAMB-231, 1.56 µM
  Average of Relative viability of cells (%): 96.1%
- MDAMB-231; MDAMB-231, 3.125 µM
  Average of Relative viability of cells (%): 79.5%
- MDAMB-231; MDAMB-231, 6.25 µM
  Average of Relative viability of cells (%): 63.2%
- MDAMB-231; MDAMB-231, 12.5 µM
  Average of Relative viability of cells (%): 38.7%
- MDAMB-231; MDAMB-231, 25 µM
  Average of Relative viability of cells (%): 27.4%
- MDAMB-231; MDAMB-231, 50 µM
  Average of Relative viability of cells (%): 17.8%
- MDAMB-231; MDAMB-231, 100 µM
  Average of Relative viability of cells (%): 14.3%
Pancreatic - MDAMB-231
  IC50: 10 ± 0.9 µM
